From patent US11723886B2, “Targeting ocular diseases with novel APE1/Ref-1 inhibitors” (Indiana University Research and Technology Corporation, priority 2018, dated 2023)

How the values were obtained:
[1] = tested on: APE1 repair activity in neurons; conditions: cited from earlier work
HIF-regulated genes = test: RNA-Seq of HIF-regulated genes in HRECs; format: cell-based, human; conditions: 0.1 and 1 μM, 6 and 24 hours
Description: Human retinal endothelial cells (HRECs) (Cell Systems, Inc. Kirkland, Wash.) were plated in 6-well plates and treated with 0.1 μM APX2009, 1 μM APX2009 or DMSO for 6 hours and 24 hours. Cells were washed once after treatment with PBS, collected and frozen. This process was repeated to collect treated cells in 4 different passages. RNA was extracted in 300 μL Trizol (Life Technologies, Carlsbad, Calif.) and flash frozen at −80° C. The SMARTer system (Clontech, Mountain View, Calif.) was used to generate cDNA from cells. The dscDNA quantity and quality was assessed using an Agilent Bioanalyzer (Agilent Technologies, Santa Clara, Calif., USA) with the High Sensitivity DNA Chip. […] The IUSM Genomics Facility prepared libraries using a Nextera kit (Illumina, San Diego, Calif.). DNAs were sequenced using the Illumina HiSeq 4000.

SMILES: CCC/C(=C\C1=C(OC)C(=O)c2ccccc2C1=O)C(=O)N(CC)CC [APX2009, (2E)-2-[(3-methoxy-1,4-dioxo-1,4-dihydronaphthalen-2-yl)methylidene]-N,N-diethylpentanamide]
- APE1 repair activity in neurons [1]: can enhance APE1 repair activity
- expression of HIF regulated genes (RNA-Seq) (HIF-regulated genes): blocked HIF regulated genes in a concentration dependent manner
